According to publication PMC7547722, “A versatile soluble siglec scaffold for sensitive and quantitative detection of glycan ligands” (Nature Communications, 2020):
Several values for one entry are separate records, joined by “and”; a condition that tells them apart may be missing. Identical values can stand only once.

Tests used:
U937 cells = experiment: Flow cytometry, Siglec-Fc pre-complexed with Strep-Tactin, streptavidin or anti-human IgG1; type: cell-based; settings: for Binding: Suppl Fig 4b
Procedure: (§1) Strep-Tactin-AF647 (0.55 μg/mL, 0.57 pmol), streptavidin (Biolegend), or anti-human igG1 (Biolegend) was added to Siglec supernatant (50 μL) or purified Siglec and allowed to sit at 4 °C for 15 min. After, the pre-complexed solution was added to cells in a 96-well U-bottom plate for 30 min at 4 °C. After, 200 μL of flow buffer (HBSS, 0.1% BSA, 5 mM EDTA) was added and the plate was spun down at 300 rcf for 5 min. The cells were resuspended in 200 μL of flow buffer and processed through the flow cytometer.
(§2) Flow cytometry was performed on a BD LSRFortessa™ X-20 cell analyzer using BD FACSDiva Software Version 8.0.1 and data was processed using FlowJo LLC. Version 9.9.6 and Graphpad Prism 8. The live, single cell populations were gated out with two gates to obtain the median fluorescence intensity (MFI), which indicates binding of the Siglec-Fc-secondary complex to the cell surface. Control cells that were incubated with Strep-Tactin-AF647 (0.55 μg/mL, 0.57 pmol) was used to determine the baseline fluorescence. Number of cells (# cells) plotted indicates percentage of max (% max).

A549 cells = experiment: Flow cytometry, pre-complexed Siglec-Fc binding; type: cell-based; settings: Strep-Tactin-AF647, replicates
Procedure: as §1, §2

HEK293T cells = experiment: Flow cytometry, pre-complexed Siglec-Fc binding; type: cell-based
Procedure: as §1, §2

HuH7 cells = experiment: Flow cytometry, pre-complexed Siglec-Fc binding; type: cell-based; settings: Strep-Tactin-AF647, replicates
Procedure: as §1, §2

Jurkat cells = experiment: Flow cytometry, pre-complexed Siglec-Fc binding; type: cell-based; settings: Strep-Tactin-AF647, replicates
Procedure: as §1, §2

K562 cells = experiment: Flow cytometry, pre-complexed Siglec-Fc binding; type: cell-based; settings: Strep-Tactin-AF647, replicates
Procedure: as §1, §2

BT549 = experiment: Flow cytometry, pre-complexed Siglec-Fc binding to breast cancer cell line; type: cell-based; settings: Strep-Tactin-AF647, replicates
Procedure: as §1, §2

HS578T = experiment: as above; type: cell-based; settings: Strep-Tactin-AF647, replicates
Procedure: as §1, §2

MCF7 = experiment: as above; type: cell-based; settings: Strep-Tactin-AF647, replicates
Procedure: as §1, §2

MDA-MB-231 = experiment: as above; type: cell-based; settings: Strep-Tactin-AF647, replicates
Procedure: as §1, §2

MDA-MB-468 = experiment: as above; type: cell-based; settings: Strep-Tactin-AF647, replicates
Procedure: as §1, §2

T47D = experiment: as above; type: cell-based; settings: Strep-Tactin-AF647, replicates
Procedure: as §1, §2

ZR-75-1 = experiment: as above; type: cell-based; settings: Strep-Tactin-AF647, replicates
Procedure: as §1, §2

basophils (CCR3+) = experiment: Siglec ligands on peripheral blood immune cells, flow cytometry; type: cell-based, human; set-up: key: median fluorescence intensity (MFI) of Siglec-Fc complex binding; settings: replicate values
Procedure: (§3) Siglec supernatant (50 μL) or purified Siglec was incubated with cells in a 96-well U-bottom plate for 30 min at 4 °C. Following the incubation, 200 μL of flow buffer (HBSS, 0.1% BSA, 5 mM EDTA) was added and the plate was spun down at 300 rcf for 5 min. Strep-Tactin-AF647 (0.55 μg/mL, 50 μL, 0.57 pmol), streptavidin (Biolegend), or anti-human IgG1 (Biolegend) was added to the cells and incubated for 30 min at 4 °C. After, 200 μL of flow buffer (HBSS, 0.1% BSA, 5 mM EDTA) was added and the plate was spun down at 300 rcf for 5 min. The cells were resuspended in 200 μL of flow buffer and processed through the flow cytometer.
as §1
(§4) For human splenocytes, the sample was homogenized in media through a 40 µm filter (Corning) under sterile conditions. Samples were centrifuged at 300 rcf for 5 min. The resulting pellet from the spleen sample and whole human blood were treated with RBC lysis buffer (7 min) and centrifuged at 300 rcf and the RBC lysis was repeated twice more until no RBC remained in the pellet. […]
(§5) Flow cytometry was performed on a BD LSRFortessa™ X-20 cell analyzer using BD FACSDiva Software Version 8.0.1 and data was processed using FlowJo LLC. […] The live, single cell populations were gated out with two gates to obtain the median fluorescence intensity (MFI), which indicates binding of the Siglec-Fc-secondary complex to the cell surface. Control cells that were incubated with Strep-Tactin-AF647 (0.55 μg/mL, 0.57 pmol) was used to determine the baseline fluorescence. […]

eosinophils (Siglec-8+) = experiment: as above; type: cell-based, human; set-up: key: median fluorescence intensity (MFI) of Siglec-Fc complex binding; settings: replicate values
Procedure: as §3, §1, §4, §5

monocytes (CD14+) = experiment: as above; type: cell-based, human; set-up: key: median fluorescence intensity (MFI) of Siglec-Fc complex binding; settings: replicate values
Procedure: as §3, §1, §4, §5

B-cells (CD19+) = experiment: as above; type: cell-based, human; settings: replicate values
Procedure: (§6) For human splenocytes, the sample was homogenized in media through a 40 µm filter (Corning) under sterile conditions. Samples were centrifuged at 300 rcf for 5 min. The resulting pellet from the spleen sample and whole human blood were treated with RBC lysis buffer (7 min) and centrifuged at 300 rcf and the RBC lysis was repeated twice more until no RBC remained in the pellet. Samples were treated with human Fc-receptor blocking agent (TruStain FX, Biolegend) in flow buffer (HBSS, 0.1% BSA, 5 mM EDTA). For analysis, the following cocktail was used: hSig8 (PerCP/Cy5.5, clone 7C9, Biolegend cat. no. 347108, 1:200), hCD123 (PE/Cy7, clone 6H6, Biolegend cat. no. 306010, 1:200), hCD19 (PE, clone SJ25C1, Biolegend cat. no. 363004, 1:200), hCD3 (FITC, BD Pharmingen cat. no. 555332, 1:50), hCD14 (BV605, clone M5E2, BD Horizon cat. no. 564056, 1:200), hCD15 (BUV395, clone HI98, BD Horizon cat. no. 563872, 1:200), hCD56 (BV510, clone NCAM16.2, BD Horizon cat. no. 563041, 1:200). For human peripheral blood samples, we additionally used hHLA-DR (APC-Cy7, clone L243, Biolegend cat. no. 307618, 1:200). Pre-complexed Siglec-Fc/Strep-Tactin-AF647 (described above) was added to the antibody cocktail, added to cells, and allowed to stain at 4 °C for 45 min. The cells were then centrifuged at 300 rcf for 5 min and resuspended in flow buffer containing 1 µg/mL propidium iodide prior to analysis by flow cytometry.
as §2

NK cells (CD56+) = experiment: as above; type: cell-based, human; settings: replicate values
Procedure: as §6, §2

T-cells (CD3+) = experiment: as above; type: cell-based, human; settings: replicate values
Procedure: as §6, §2

cDCs (CD123dim/HLA-DR+) = experiment: as above; type: cell-based, human; settings: cDC; replicate values
Procedure: as §6, §2

neutrophils (CD15+) = experiment: as above; type: cell-based, human; settings: replicate values
Procedure: as §6, §2

pDCs (CD123high/HLA-DR+) = experiment: as above; type: cell-based, human; settings: pDC; replicate values
Procedure: as §6, §2

[1] = system: neutrophils (CD15+), human splenocytes; experiment: Siglec-Fc (CD22-Fc V1/V2, with or without Fc receptor block) binding to splenocytes, flow cytometry; type: cell-based; settings: Suppl Fig 12; three replicate columns
Procedure: For human splenocytes, the sample was homogenized in media through a 40 µm filter (Corning) under sterile conditions. Samples were centrifuged at 300 rcf for 5 min. The resulting pellet from the spleen sample and whole human blood were treated with RBC lysis buffer (7 min) and centrifuged at 300 rcf and the RBC lysis was repeated twice more until no RBC remained in the pellet. Samples were treated with human Fc-receptor blocking agent (TruStain FX, Biolegend) in flow buffer (HBSS, 0.1% BSA, 5 mM EDTA). […]
as §5

[2] = system: B-cells (CD19+), human splenocytes; experiment: Siglec-Fc binding to splenocytes, flow cytometry; type: cell-based; settings: Suppl Fig 12; three replicate columns
Procedure: as §6, §2

[3] = system: NK cells (CD56+), human splenocytes; experiment: Siglec-Fc binding to splenocytes, flow cytometry; type: cell-based; settings: Suppl Fig 12; three replicate columns
Procedure: as §6, §2

[4] = system: T-cells (CD3+), human splenocytes; experiment: Siglec-Fc binding to splenocytes, flow cytometry; type: cell-based; settings: Suppl Fig 12; three replicate columns
Procedure: as §6, §2

[5] = system: monocytes (CD14+), human splenocytes; experiment: Siglec-Fc binding to splenocytes, flow cytometry; type: cell-based; settings: Suppl Fig 12; three replicate columns
Procedure: as §6, §2

[6] = system: K562 cells treated with Neuraminidase A; experiment: Pre-complexed Siglec-Fc binding with or without Neu-A pretreatment; type: cell-based; settings: Suppl Fig 7a
Procedure: as §1, §2
K562 cells were incubated with Neuraminidase A at 37 °C for 30 min with shaking every 5 min. Cells were then added to a 96-well U-bottom plate and incubated with pre-complexed Strep-Tactin-AF647/Siglec, as described above.

CMAS−/− HEK293 cells = experiment: Pre-complexed Siglec-Fc binding to sialic acid-deficient cells; type: cell-based; settings: Suppl Fig 7b; HEK CMASKO
Procedure: Custom crRNA (IDT) was designed to target human CMAS ([…]) and ST6Gal1 ([…]). Cells were seeded at 500,000 cells per well 1 day prior to transfection in a 6-well tissue culture plate. For one well of a 6-well plate, 20 pmol of Cas9 nuclease (IDT), 20 pmol of ATTO-550 labeled crRNA:tracrRNA (IDT) duplex, 8 μL Cas9 Plus reagent (IDT), and 16 μL CRISPRMAX reagent (Thermo Fisher) in 600 μL Opti-MEM medium (Gibco). One day after transfection, cells were removed from the plate by trypsin digestion, washed, resuspended in 300 μl of cell sorting medium (HBSS, 10% FBS, 1 mM EDTA), and stored on ice until sorting. Cells were sorted within the University of Alberta Flow Cytometry Core. The top 5% bright dyes stained with ATTO-550 were sorted into three 96-well plates containing regular culture medium at one cell per well. […]
as §5

Strep-tag II = settings: cited from earlier work

Substance: Sig-1-Fc R116A
- Binding (U937 cells; Amount of Siglec 3.75 ug/mL): 54.5 and 53.7 and 57.1
- Binding (U937 cells; Amount of Siglec 7.5 ug/mL): 57.9 and 62.1 and 64.6
- Binding (U937 cells; Amount of Siglec 15 ug/mL): 67.9 and 72.2 and 70.4
- Binding (U937 cells; Amount of Siglec 30 ug/mL): 133 and 128 and 148
- Binding (U937 cells; Amount of Siglec 60 ug/mL): 157 and 165 and 148

Substance: Sig-8 R128A: Siglec-8-Fc essential arginine mutant
- binding of pre-complexed Siglec-Fc (MFI) (U937 cells; U937, Strep-Tactin-AF647, replicates, Fig. 2): 94.6 and 90.4 and 92.5
- binding of pre-complexed Siglec-Fc (MFI) (A549 cells): 123 and 130 and 127
- binding of pre-complexed Siglec-Fc (MFI) (HEK293T cells; HEK, Strep-Tactin-AF647, replicates): 70.7 and 73.5 (2×)
- binding of pre-complexed Siglec-Fc (MFI) (HuH7 cells): 92.2 and 88.8 and 95.7
- binding of pre-complexed Siglec-Fc (MFI) (Jurkat cells): 80.5 and 89.6 and 88.9
- binding of pre-complexed Siglec-Fc (MFI) (K562 cells): 133 and 120 and 116
- binding of pre-complexed Siglec-Fc (MFI) (BT549): 101 and 105 (2×)
- binding of pre-complexed Siglec-Fc (MFI) (HS578T): 127 and 117 and 114
- binding of pre-complexed Siglec-Fc (MFI) (MCF7): 129 (2×) and 126
- binding of pre-complexed Siglec-Fc (MFI) (MDA-MB-231): 154 (2×) and 157
- binding of pre-complexed Siglec-Fc (MFI) (MDA-MB-468): 125 and 126 and 131
- binding of pre-complexed Siglec-Fc (MFI) (T47D): 86.1 and 97.6 and 94.1
- binding of pre-complexed Siglec-Fc (MFI) (ZR-75-1): 269 and 266 and 255
- Siglec-Fc binding (Figure 3d) (basophils (CCR3+)): 38.5 and 41.6 and 74.4
- Siglec-Fc binding (Figure 3d) (eosinophils (Siglec-8+)): 25.7 and 26.1 and 45
- Siglec-Fc binding (Figure 3d) (monocytes (CD14+)): 97.7 and 42.1 and 63.5
- Siglec-Fc binding (Figure 3d) (B-cells (CD19+)): 41.1 and 12.5 and 42.1
- Siglec-Fc binding (Figure 3d) (NK cells (CD56+)): 32.1 and 46.5 and 41.2
- Siglec-Fc binding (Figure 3d) (T-cells (CD3+)): 20.5 and 10.3 and 64.2
- Siglec-Fc binding (Figure 3d) (cDCs (CD123dim/HLA-DR+)): 60.4 and -24.4 and 18
- Siglec-Fc binding (Figure 3d) (neutrophils (CD15+)): 38.5 and 12.4 and 5.83
- Siglec-Fc binding (Figure 3d) (pDCs (CD123high/HLA-DR+)): 74.5 and 11.6 and 48.8
- Binding, Neutrophils [1]: -13.8 and -28.2 and -29.9
- Binding, B-cells [2]: 3.45 and -1.72 and -2.87
- Binding, NK [3]: 4.43 and 1.18 and 2.36
- Binding, T-cells [4]: 6.21 and 2.36 and 4.73
- Binding, Monocytes [5]: 15.5 and 9.76 and 8.04

Substance: Siglec-2
- Binding (HEK293T cells; Suppl Fig 7b, HEK WT): 631 and 654 and 721
- Binding ([6]; +Neuraminidase): 88.8 and 91.5 and 90.6
- Binding ([6]; -Neuraminidase): 2128 and 1497 and 1576
- Binding (CMAS−/− HEK293 cells): 86 and 84.2

Substance: Streptavidin: protein binding Strep-tag II with intermediate affinity [reference compound]
- Siglec-1-Fc Binding (U937 cells; Suppl Fig 4a, Streptavidin alone): 150 and 128 and 134
- Kd (Strep-tag II): 72 µM
